Data as given in patent publication US8669250B2, “Derivatives of aryl-{4-halogeno-4-[aminomethyl]-piperidin-1-yl}-methanone, their method of preparation and their use as medicinal products” (Pierre Fabre Medicament, priority 2009, dated 2014).
Where a name gives a salt, the structure may show the parent alone.

Tests used:
[1] = biological target: T1, 5-HT1A receptor (Rattus norvegicus, UniProt P19327); assay: Affinity for 5-HT1A receptors, shift of (3H)8-OH-DPAT in rat cerebral cortex; type: binding; conditions: mean of at least 3 experiments, read-out: 5-HT1A affinity (pKi) (converted)
T1 construct: the cerebral cortex is sampled and homogenized in 20 volumes of buffer; from tissue; host or cells: rat cerebral cortex homogenate (membranes)
T1 sequence (P19327 1-422): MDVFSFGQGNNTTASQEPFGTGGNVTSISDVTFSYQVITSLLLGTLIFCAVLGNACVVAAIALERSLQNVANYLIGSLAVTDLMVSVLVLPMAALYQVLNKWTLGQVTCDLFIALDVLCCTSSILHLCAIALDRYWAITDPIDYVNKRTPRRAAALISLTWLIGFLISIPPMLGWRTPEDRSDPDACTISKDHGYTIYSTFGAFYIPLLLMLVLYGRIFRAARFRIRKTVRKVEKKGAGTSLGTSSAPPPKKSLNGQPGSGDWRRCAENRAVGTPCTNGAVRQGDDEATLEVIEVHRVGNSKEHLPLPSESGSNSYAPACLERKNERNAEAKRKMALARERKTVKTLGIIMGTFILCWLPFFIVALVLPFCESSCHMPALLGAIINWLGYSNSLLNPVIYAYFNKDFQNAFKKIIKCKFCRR
Method: (§1) The affinity of the compounds of the invention for the rat 5-HT1A receptor was measured conventionally from competitive experiments with a radiolabelled 5-HT1A agonist. […] This test is widely used since it is predictive of antidepressant action in man. Analgesic activity was determined after intra-peritoneal administration to rats, both with a physiological pain model and a pathological pain model. By physiological pain, the inventors designate pain whose origin is a lesion and/or organic ill-function such as pain caused by excessive nociceptive stimuli.
The in vitro affinity of the compounds of the invention for the 5-HT1A receptors was determined by measuring the shift of (^3H)8-OH-DPAT (agonist of 5HT1A receptors labelled with tritium, TRK 850; 160-240 Ci/mmole).
The study on binding with the 5-HT1A receptor was conducted as described in Naunyn-Schmiedeberg's Arch. Pharmaco. 1991, 343, 106. For these experiments, rat cerebral cortices were used. After unfreezing the brain in Tris-HCl buffer 50 mmol, pH=7.40 at 25° C., the cerebral cortex is sampled and homogenized in 20 volumes of buffer held at 4° C. The homogenate is centrifuged at 39000 g for 10 min, the centrifuge residue is suspended in the same volume of buffer and again centrifuged. After further suspension under the same conditions, the homogenate is incubated for 10 min at 37° C. then again centrifuged. The final residue is suspended in cold reaction buffer Tris-HCl 50 mmol, pH=7.40 at 25° C. containing […] of pargyline, 4 mmol of CaCl2 and 0.10% ascorbic acid. The final concentration of the tissue in the incubation medium is 10 mg/tube.
The reaction tubes contain 0.10 mL of (^3H)8-OH-DPAT (final […]), 0.10 mL of product to be tested 6-7 concentrations and 0.80 mL of tissue. Non-specific binding is defined using […] of 5-HT. The reaction tubes are incubated at 23° C. for 30 min then their content is rapidly vacuum filtered through Whatman GF/B filters, the tubes are rinsed with 2×5 mL of Tris-HCl buffer 50 mmol, pH=7.4 at 25° C. Radioactivity is collected on the filter and analyzed by liquid scintillation by adding 4 mL of scintillating liquid (Emulsifier Safe, Packard). All experiments were performed in triplicate.
The inhibition constants (Ki) of the products of the invention are estimated from shift experiments using the non-linear regression programme RADLIG version 4 by EBDA (Equilibrium Binding Data Analysis Biosoft, Cambridge, UK, Mc Pherson, 1985). The dissociation constant of the radioactive ligand used for calculations is […] for (^3H)8-OH-DPAT. The values of pKi (−log Ki) are given in the form mean±SEM of at least 3 experiments.

[2] = test system: rats, forced swimming immobility; assay: Forced swimming test (antidepressant activity); type: in vivo; conditions: rat, oral, even at a dose of 40 mg/Kg
Method: as §1
The rats (Male Sprague Dawley rats (ICO: OFA SD [IOPS], Iffa Credo, France), are placed in a cylinder (45 cm high and 20 cm in diameter) filled with water at 25° C.±0.5 up to a height of 17 cm. This depth allows rats to swim or float without their tail touching the bottom of the cylinder.
24 h before the test day, the rats are placed in the cylinder for 15 min, a lapse of time after which they no longer attempt to escape and remain immobile. On the test day the animals are replaced in the cylinder and the duration of animal immobility is measured by direct observation followed by verification of an audiovisual recording for 5 min. The products of the invention are administered by oral route 60 min before the test. A rat is considered to be immobile if it allows itself to float and only makes small movements to remain on the surface. Two rats are observed at the same time.
(§2) Quantification of the effect of the compounds of the invention on the forced swimming tests and on the formol test is conducted by one-factor variance analysis between groups (ANOVA analysis) followed by a multiple comparison test (Dunnett's test) versus control animals. The ED50 value is calculated using Litchfield and Wilcoxon analysis from the percentage of responding animals.

[3] = test system: rats, formol-induced pain; assay: Formol test (analgesic activity, physiological pain); type: in vivo; conditions: rat, i.p.
Excerpt: (§3) The physiological pain model chosen by the inventors to determine the analgesic activity of the compounds of the invention uses excess nociceptive stimuli (injection of formol) to cause a painful sensation in animal (Eur. J. Pharmacol. 2001, 421, 109). For the so-called pathological pain model in animal, the inventors chose to use pain induced by the injection of a cytotoxic agent such as oxaliplatine (Eur. J. Cancer 2007, 2658).
The rats (Male Sprague Dawley rats (ICO: OFA SD [IOPS], Iffa Credo, France) are placed in plexiglass observation boxes above an angled mirror so as to facilitate observation of the hind paws. After thirty minutes of habituation, the animals are given an injection of formol diluted to 2.5% on the plantar surface of the right hind paw. The injection of formol produces behavioural responses which occur in two phases:
an acute phase, from 0 to 5 min after injection of the formol, corresponding to stimulation of receptors specialized in the transmission of pain messages to the spinal cord.
a late phase which occurs 20 to 30 min after the injection. This phase corresponds to stimulation of receptors by inflammatory mediators and/or to hyper-excitability of the dorsal horn induced during the first phase. This late phase therefore involves central sensitization.
For the study of the compounds of the invention we selected two expressions of painful behaviour and chose two periods of observation which correspond to the two pain phases (i.e. 0-5 min and 22.5-27.5 min). During these two 5-min periods the animals are observed every 30 seconds and are given scores for the following behaviours: paw licking or not of the injected paw, and lifting or non-lifting of the injected paw. Ten observations give a maximum score of 10 for each parameter for each of the 2 phases. The products of the invention are administered via intraperitoneal route 15 min before the injection of formol.
as §2
For this test, the animals are observed every 30 seconds during two periods of 5 min. The following behaviours are noted: paw licking or not of the injected paw, and paw lifting or not of the injected paw. Ten observations give a maximum score of 10 for each parameter for each of the 2 phases, measuring either paw lifting or paw licking. This test was also performed by comparison with administration of the vehicle (veh) alone.

[4] = test system: rats, oxaliplatine-induced allodynia; assay: Oxaliplatine test, von Frey (analgesic activity, pathological pain); type: in vivo; conditions: rat, i.p., even at a dose of 2.5 mg/kg
Excerpt: as §3
The rats (Male Sprague Dawley rats (ICO: OFA SD [IOPS], Iffa Credo, France) are tested a first time on the Friday to determine their mechanical sensitivity threshold (von Frey test). They are then given an intra-peritoneal injection (i.p.) of oxaliplatine (anticancer treatment causing neuropathic pain in patients) at a dose of 8 mg/kg. This dose in rat induces neuropathy which translates as mechanical hypersensitivity (allodynia) which develops 3 days after the injection with a peak on day five. For the study of the compounds of the invention, the animals are re-tested on day five, 15 min after administration of the compound via intra-peritoneal route.
The pressure force is then measured (in g) at which withdrawal of the paw of the animals is observed.

| Compound | Ki [1] | melting point | further results |
| --- | --- | --- | --- |
| O=C(c1ccc(F)c(Cl)c1)N1CCC(F)(CNCC2CNc3ccccc3O2)CC1 (single isomer, unassigned; (-)) (as salt: fumarate) [Compound 1a1, (−)-(3-Chloro-4-fluoro-phenyl)-{4-fluoro-4-[(3,4-dihydro-2H-1,4-benzoxazine-2-methanamino)-methyl]-pipéridin-1-yl}-methanone] | – | 185 °C | – |
| O=C1CC2(CCCC2)CC(=O)N1CCCCN1CCN(c2ncccn2)CC1 [buspirone, reference compound] | – | – | effect on animal immobility [2]: no effect on animal immobility; dose on and after which paw lifting is affected ([3]; acute phase and late phase): ≥ 2.5 mg/kg; dose on and after which paw licking is inhibited ([3]; late phase): ≥ 2.5 mg/kg; analgesia, in words [4]: does not produce any significant analgesia |
| CN1CC(CNCC2(F)CCN(C(=O)c3ccc(F)c(Cl)c3)CC2)Oc2ccccc21 (stereo not drawn) (as salt: fumarate) [Compound 1g, (3-Chloro-4-fluoro-phenyl)-{4-fluoro-4-[(3,4-dihydro-2H-4-methyl-1,4-benzoxazine-2-methanamino)-methyl]-piperidin-1-yl}-methanone] | – | 125 °C | – |
| O=C(c1ccc(F)c(Cl)c1)N1CCC(F)(CNCC2CNc3ccccc3O2)CC1 (stereo not drawn) (as salt: hydrochloride) [Compound 1a3, (3-Chloro-4-fluoro-phenyl)-{4-fluoro-4-[(3,4-dihydro-2H-1,4-benzoxazine-2-methanamino)-methyl]-piperidin-1-yl}-methanone] | – | 175 °C | – |
| CN1CC(CNCC2(F)CCN(C(=O)c3ccc(F)c(Cl)c3)CC2)Oc2ccccc21 (stereo not drawn) [Compound 1g, (3-Chloro-4-fluoro-phenyl)-{4-fluoro-4-[(3,4-dihydro-2H-4-methyl-1,4-benzoxazine-2-methanamino)-methyl]-piperidin-1-yl}-methanone] | 0.794 nM | – | – |

Continued, in another order:

| Ki [1] | melting point | Compound | further results |
| --- | --- | --- | --- |
| 1.23 nM | – | Cc1cccc2c1OC(CNCC1(F)CCN(C(=O)c3ccc(F)c(Cl)c3)CC1)CN2 (stereo not drawn) [Compound 1c, (3-Chloro-4-fluoro-phenyl)-{4-fluoro-4-[(3,4-dihydro-2H-8-methyl-1,4-benzoxazine-2-methanamino)-methyl]-piperidin-1-yl}-methanone] | – |
| 0.646 nM | – | N#Cc1cccc2c1OC(CNCC1(F)CCN(C(=O)c3ccc(F)c(Cl)c3)CC1)CN2 (stereo not drawn) [Compound 1f, (3-Chloro-4-fluoro-phenyl)-{4-fluoro-4-[(3,4-dihydro-2H-8-cyano-1,4-benzoxazine-2-methanamino)-methyl]-piperidin-1-yl}-methanone] | – |
| 2.29 nM | – | O=C(c1ccc(F)c(Cl)c1)N1CCC(F)(CNCC2CNc3cccc(Cl)c3O2)CC1 (stereo not drawn) [Compound 1d, (3-Chloro-4-fluoro-phenyl)-{4-fluoro-4-[(3,4-dihydro-2H-8-chloro-1,4-benzoxazine-2-methanamino)-methyl]-piperidin-1-yl}-methanone] | – |
| 1.51 nM | – | COc1cccc2c1OC(CNCC1(F)CCN(C(=O)c3ccc(F)c(Cl)c3)CC1)CN2 (stereo not drawn) [Compound 1e, (3-Chloro-4-fluoro-phenyl)-{4-fluoro-4-[(3,4-dihydro-2H-8-methoxy-1,4-benzoxazine-2-methanamino)-methyl]-piperidin-1-yl}-methanone] | – |
| – | 100 °C | O=C(c1ccc(F)c(Cl)c1)N1CCC(F)(CNCC2CNc3cccc(F)c3O2)CC1 (stereo not drawn) (as salt: fumarate) [Compound 1b, (3-Chloro-4-fluoro-phenyl)-{4-fluoro-4-[(3,4-dihydro-2H-8-fluoro-1,4-benzoxazine-2-methanamino)-methyl]-piperidin-1-yl}-methanone] | – |
| 0.741 nM | – | NC(=O)c1cccc2c1OC(CNCC1(F)CCN(C(=O)c3ccc(F)c(Cl)c3)CC1)CN2 (stereo not drawn) [Compound 1h, (3-Chloro-4-fluoro-phenyl)-{4-fluoro-4-[(3,4-dihydro-2H-8-carbamoyl-1,4-benzoxazine-2-methanamino)-methyl]-piperidin-1-yl}-methanone] | – |
| 0.631 nM | – | O=C(c1ccc(F)c(Cl)c1)N1CCC(F)(CNCC2CNc3cccc(F)c3O2)CC1 (stereo not drawn) [Compound 1b, (3-Chloro-4-fluoro-phenyl)-{4-fluoro-4-[(3,4-dihydro-2H-8-fluoro-1,4-benzoxazine-2-methanamino)-methyl]-piperidin-1-yl}-methanone] | – |
